The values below are quoted from earlier work in paper PMC4245168 (ACS Chemical Biology, 2014).

For the series, the system named is parent TPR2A protein. The conditions noted are these: MEAVD versus MEEVD, ref [8]; cited from earlier work.

Regarding MEAVD, the “ΔΔG associated with the difference between MEAVD and MEEVD binding” value was around 0.6 kcal/mol.
